Results on three molecules are retold here after patent publication US10898486B2, “Crystal form of orexin receptor antagonist compound, and preparation method and application thereof” (Shanghai Haiyan Pharmaceutical Technology Co., Ltd., priority 2015, dated 2021).

In general, IC50 refers to the concentration needed to halve the response being measured. As usually defined, the solubility is how much of the substance goes into solution per volume.

The target of one data set is T1, hOX2R (Homo sapiens, UniProt O43614).
T1 construct: expressed in transfected cells
T1 sequence (O43614 1-444): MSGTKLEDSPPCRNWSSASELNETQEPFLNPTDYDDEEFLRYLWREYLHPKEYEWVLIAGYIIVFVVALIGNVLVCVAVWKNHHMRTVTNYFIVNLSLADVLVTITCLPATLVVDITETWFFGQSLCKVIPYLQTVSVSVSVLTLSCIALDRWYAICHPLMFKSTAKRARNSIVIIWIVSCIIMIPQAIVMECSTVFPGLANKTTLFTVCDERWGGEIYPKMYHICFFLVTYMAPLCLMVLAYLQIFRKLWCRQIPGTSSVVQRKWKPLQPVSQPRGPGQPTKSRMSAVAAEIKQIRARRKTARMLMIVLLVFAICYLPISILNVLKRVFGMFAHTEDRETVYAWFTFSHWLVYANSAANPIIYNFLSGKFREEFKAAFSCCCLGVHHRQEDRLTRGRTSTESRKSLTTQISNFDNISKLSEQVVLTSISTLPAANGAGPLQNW
The data set is described as follows: In vitro test of OX2R: calcium signal change in HEK293-OX2 cells detected with FLIPR. It counts as cell-based.

The target of a further data set is T2, hOX1R (Homo sapiens, UniProt O43613).
T2 construct: expressed in transfected cells
T2 sequence (O43613 1-425): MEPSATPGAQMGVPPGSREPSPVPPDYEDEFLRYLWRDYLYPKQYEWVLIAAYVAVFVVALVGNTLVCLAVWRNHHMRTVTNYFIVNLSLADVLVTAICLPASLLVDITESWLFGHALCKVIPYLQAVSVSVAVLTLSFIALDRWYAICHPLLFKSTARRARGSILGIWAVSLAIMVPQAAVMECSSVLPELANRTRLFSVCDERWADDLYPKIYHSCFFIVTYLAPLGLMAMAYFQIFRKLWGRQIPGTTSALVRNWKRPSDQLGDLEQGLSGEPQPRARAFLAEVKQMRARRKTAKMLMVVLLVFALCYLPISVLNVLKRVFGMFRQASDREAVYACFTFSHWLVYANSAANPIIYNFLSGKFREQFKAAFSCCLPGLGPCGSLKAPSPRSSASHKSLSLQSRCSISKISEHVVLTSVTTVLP
Description: In vitro test of OX1R: calcium signal change in HEK293-OX1 cells detected with FLIPR. It counts as cell-based.

Data set [1] can be described thus: Solubility of crystal form II in different aqueous media (37° C., 24 hours, HPLC). It counts as physicochemical. Conditions: for Appearance: 10 mg in 1 mL.
A short description of data set [2]: Solubility of crystal form I in different solvents (visual, room temperature). It counts as physicochemical. Here is the method:
Solubility Study of crystal form I of compound 5-3:1-1.5 mg of crystal form I of compound 5-3 was added to a flask at room temperature, a single organic solvent or a mixed solvent was added in small quantities and many times until the visual solution was clear or no solid particles were present, determined the solubility of crystal form I in different solvents, the results were shown in Table 2.

[3] abbreviates: Simulated fasting intestinal fluid.
Where [4] appears, read: Simulated postprandial intestinal fluid.

Molecules are shown by their SMILES. In brackets after ≈: the same amount, converted by molar mass.

On to `Cc1ccc(-c2ncccn2)c(C(=O)N2C3CCC2[C@@H](COc2ccc(F)cn2)CC3)c1` (stereo partly drawn) [Compound 5-3], for which the IC50 on hOX2R and on hOX1R was below 50 nM in each case.

`Cc1ccc(-c2ncccn2)c(C(=O)N2C3CCC2[C@@H](COc2ccc(F)cn2)CC3)c1` (stereo partly drawn) [crystal form II]: the “Crystal form of residual solid” value in data set [1] (0.1N HCl), in data set [1] (Simulate gastric fluid), in data set [1] (setting [3]), in data set [1] (setting [4]) and in data set [1] (water) was “crystal form II” throughout. The “Final pH” value in data set [1] (0.1N HCl) was 0.80; in data set [1] (Simulate gastric fluid), 1.88; in data set [1] (setting [3]), 6.65; in data set [1] (setting [4]) it was 5.04; in data set [1] (water) it was 7.95. Also, the “Solubility (descriptive)” value in data set [1] (0.1N HCl), in data set [1] (Simulate gastric fluid), in data set [1] (setting [3]), in data set [1] (setting [4]) and in data set [1] (water) was “Slightly soluble” in each case. Also, the Appearance result in data set [1] (0.1N HCl), in data set [1] (Simulate gastric fluid), in data set [1] (setting [3]), in data set [1] (setting [4]) and in data set [1] (water) was “turbid” in each case. In addition, the solubility at 24 h in data set [1] (pH 0.8, simulated gastric fluid, thermodynamic from solid, 0.1N HCl) is 0.42 mg/mL (≈ 0.971 mM); in data set [1] (pH 1.88, simulated gastric fluid, thermodynamic from solid, Simulate gastric fluid), 0.27 mg/mL (≈ 0.624 mM); in data set [1] (pH 5.04, fessif, thermodynamic from solid, Simulated postprandial intestinal fluid), 0.29 mg/mL (≈ 0.671 mM); in data set [1] (pH 6.65, fassif, thermodynamic from solid, Simulated fasting intestinal fluid), 0.18 mg/mL (≈ 0.416 mM); in data set [1] (pH 7.95, thermodynamic from solid, water) it was 0.14 mg/mL (≈ 0.324 mM).

Turning to `Cc1ccc(-c2ncccn2)c(C(=O)N2C3CCC2[C@@H](COc2ccc(F)cn2)CC3)c1` (stereo partly drawn) [crystal form I], the solubility is above 57 mg/mL in data set [2] (organic solvent or mixture, thermodynamic from solid, 1,4-dioxane); 20 to 50 mg/mL (≈ 46.2 to 116 mM) in data set [2] (organic solvent or mixture, thermodynamic from solid, ACN); above 52 mg/mL in data set [2] (organic solvent or mixture, thermodynamic from solid, Acetone); 19 to 48 mg/mL (≈ 43.9 to 111 mM) in data set [2] (organic solvent or mixture, thermodynamic from solid, EtOAc); 22 to 55 mg/mL (≈ 50.9 to 127 mM) in data set [2] (organic solvent or mixture, thermodynamic from solid, EtOH); 10 to 20 mg/mL (≈ 23.1 to 46.2 mM) in data set [2] (organic solvent or mixture, thermodynamic from solid, IPA). For the same molecule, the solubility in data set [2] (organic solvent or mixture, thermodynamic from solid, MEK) is above 54 mg/mL; in data set [2] (organic solvent or mixture, thermodynamic from solid, MIBK) it was 24 to 60 mg/mL (≈ 55.5 to 139 mM); in data set [2] (organic solvent or mixture, thermodynamic from solid, MTBE), below 1 mg/mL; in data set [2] (organic solvent or mixture, thermodynamic from solid, MeOH), above 53 mg/mL; in data set [2] (organic solvent or mixture, thermodynamic from solid, MeOH—H2O (3:1)) it was 18 to 46 mg/mL (≈ 41.6 to 106 mM); in data set [2] (organic solvent or mixture, thermodynamic from solid, THF), above 53 mg/mL. The solubility was above 54 mg/mL in data set [2] (organic solvent or mixture, thermodynamic from solid, Toluene); 22 to 55 mg/mL (≈ 50.9 to 127 mM) in data set [2] (organic solvent or mixture, thermodynamic from solid, n-butanol); below 1 mg/mL in data set [2] (thermodynamic from solid, water).
